Assays:
Assay type in all cases: cell-based, Plasmodium falciparum
[1] = system: P. falciparum Dd2; experiment: P. falciparum Dd2 LDH growth inhibition assay (asexual blood stage); conditions: multidrug-resistant Dd2; geometric mean ×/÷ geometric SD
Method: P. falciparum isolates (3D7/Dd2) were obtained from BEI Resources and were cultured using standard procedures as described elsewhere ([47]). Briefly, P. falciparum was grown in RPMI 1640 medium (10.3 g/liter) supplemented with L-glutamine (2 mM), hypoxanthine (150 μM), Hepes (25 mM), D-glucose (12 mM), sodium bicarbonate (25.7 mM), AlbuMAX II (0.5% or 5 g/liter) (pH 7.4), and 2% RBC (type O+, freshly prepared). Cultures were replenished with fresh medium and RBCs every other day. For RBC preparation, whole blood was centrifuged at 415g at room temperature for 12 min. After that, the plasma and buffy coat were removed, and packed RBCs were washed three times with 3 vol of RPMI 1640. Last, RBCs were resuspended in 1:1 vol of complete RPMI 1640 medium (containing 0.5% AlbuMAX II).
The P. falciparum 3D7 and Dd2 LDH growth inhibition assay was carried out as described elsewhere ([48]) with minor modification of the parasitological conditions (10 to 15% parasitemia with ≥80% rings). Data were normalized to percent growth inhibition with respect to […] (for 3D7, a mixture of 100 nM chloroquine and 100 nM atovaquone as 100% inhibition; for Dd2, a mixture of 200 nM DHA and 200 nM atovaquone as 100% inhibition) controls.

[2] = system: P. falciparum stage IV/V gametocytes; experiment: LDH-based gametocyte viability assay; conditions: stage IV to V gametocytes
Method: The pLDH assay was performed on late (>95% stage IV/V) gametocytes. Compound dilutions were placed in triplicate in 96-well plates in a final volume of 100 μl per well. DHA and MMV048 were used as positive drug controls. The gametocyte cultures (100 μl per well) were added to the 96-well plates to achieve a final gametocytemia and hematocrit of 2 and 1%, respectively, in a total incubation volume of 200 μl. Plates were incubated at 37°C for 72 hours, followed by the replacement of spent medium with drug-free culture medium (75% medium change) ([54], [55]). Plates were then incubated for a further 72 hours before assessing viability by measuring pLDH activity. Gametocyte viability was determined spectrophotometrically by measuring the activity of pLDH, according to a modified version of a published protocol ([56]). Briefly, 100 μl of Malstat reagent [0.21% (v/v) Triton X-100, 222 mM L-(+)-lactic acid, 54.5 mM tris, 0.166 mM APAD (Sigma-Aldrich, A5251), adjusted to pH 9 with 1 M NaOH] was transferred into a clean 96-well plate. A fixed volume of 20 μl of parasite suspension per well was added to the Malstat plate, followed by the addition of 25 μl of PES/NBT (0.239 mM phenazine ethosulfate and 1.96 mM nitro blue tetrazolium chloride). Absorbance was measured with a Multiskan Ascent 354 multiplate scanner (Thermo LabSystems, Finland) at 620 nm.

[3] = system: P. falciparum stage V gametocytes (male gamete formation); experiment: Exflagellation (male gamete formation) inhibition assay; conditions: 2 μM, 48 hours
Method: The exflagellation inhibition assay was performed by capturing movement of exflagellation centers over time by video microscopy [adapted from a reported protocol ([52])]. For this carry-over format, mature stage V gametocytes were treated with 2 μM of each compound for 48 hours before induction of exflagellation in the presence of compound. To evaluate compound dose response, gametocytes were treated similarly at a set of concentrations representing a fourfold serial dilution. Mature gametocyte cultures (>95% stage V; 500 μl) were centrifuged at 3500 rpm for 30 s, and the pellet was resuspended in 30 μl of ookinete medium [RPMI 1640 medium containing L-glutamine (Sigma-Aldrich, R6504), gentamycin (0.024 mg/ml; HyClone, SV30080.01), 202 μM hypoxanthine (Sigma-Aldrich, H9636), 25 mM Hepes (Sigma-Aldrich, H4034), 0.2% glucose (Sigma-Aldrich, G6152), and 0.5% (w/v) AlbuMAX II (Invitrogen, Paisley, UK), supplemented with 100 μM XA and 20% human serum]. The activated culture (10 μl) was introduced into a Neubauer chamber and placed on the microscope platform to settle homogenously. Time was noted as time zero (T0), and the chamber was incubated at room temperature. Movement was recorded by video microscopy using a Carl Zeiss NT 6V/10W Stab microscope, fitted with a MicroCapture camera at 10× magnification, and then quantified by a semiautomated method, a modification of the method described previously ([53]). A series of 15 videos of 8 to 10 s each were captured at random locations between 15 and 22.5 min after incubation. Each video was analyzed using Icy bioimage analysis software to quantify the number of exflagellating centers. Compound IC50 values were determined with nonlinear curve fitting (GraphPad Prism 6), normalized to maximum and minimum inhibition.

[4] = system: P. falciparum stage V gametocytes (female gamete formation); experiment: Female gamete formation inhibition assay; conditions: 2 μM, 48 hours
Method: Mature gametocytes (>95% stage V) were treated with compounds (2 μM) for 48 hours before stimulating female gamete formation. To evaluate compound dose response, gametocytes were treated similarly at set concentrations representing a fourfold serial dilution. Female gamete activation was induced by both a temperature drop and the addition of 100 μM XA. Monoclonal anti-Pfs25 antibody (BEI Resources, catalog number MRA-28; 1:1000 dilution) conjugated to fluorescein isothiocyanate was used to detect female gametes. Image acquisition was performed using a Zeiss Axio Lab.A1 epifluorescence microscope with a 100/1.4 numerical aperture oil immersion objective and a Zeiss Axiocam 202 mono digital camera. Using a 100× objective, 30 images were taken per sample and analyzed manually. The number, size, roundness, and intensity of fluorescence of activated female gametocytes were evaluated. Compound IC50 values were determined with nonlinear curve fitting (GraphPad Prism 6), normalized to maximum and minimum inhibition.

[5] = system: P. falciparum clinical isolates from Porto Velho, Brazil; experiment: Ex vivo schizont maturation assay, Brazilian clinical isolates; conditions: eight Brazilian isolates; read-out: Median EC50, clinical isolates
Method: (§1) Only monoinfected patients with P. falciparum with parasitemia between 2000 and 80,000 parasites/μl and with at least 70% of ring-stage parasites were recruited. Patients who had used an antimalarial in the previous month and/or presented with symptoms of severe malaria were excluded from the study. The study cohort comprised 24 patients living in this highly endemic area. A peripheral venous blood sample (5 ml) was collected from each individual by venipuncture in heparin-containing tubes and immediately used in the ex vivo drug susceptibility assay using preprepared plates containing diluted antimalarial compounds. […] Last, 20 μl of each dilution was transferred into the ex vivo assay plate and diluted 10-fold into the final assay medium containing parasites. For the infected blood preparation, 5 ml of whole blood was centrifuged at 800g for 10 min, and the plasma and buffy coat were removed. […] Control assays on a 3D7 laboratory isolate were performed with medium supplemented with human serum (20%). The iRBC (180 μl per well) were distributed in the predosed drug plate. […] Control wells containing drug-free iRBCs were cultured with complete medium. The parasite-drug incubation was terminated when 40% of the ring stages reached the schizont stage (at least three distinct nuclei per parasite) in the drug-free control wells. Thick blood films were then made from each well, dried, stained with 5% Giemsa solution for 30 min, and examined microscopically. The number of schizonts per 200 asexual-stage parasites was determined for each drug concentration and then normalized by comparing with the schizont number in the drug-free control wells [considered as 100% ([64])]. The half-maximal drug inhibitory response (EC50) was estimated by curve fitting using software from the OriginLab Corporation, Northampton, MA, USA and comparing with parasite growth in the drug-free controls.

[6] = system: P. falciparum 3D7; experiment: Ex vivo schizont maturation assay, 3D7 control (Brazil); conditions: tested in parallel with Brazilian isolates, 20% human serum
Method: as §1, with “The parasite-drug incubation was terminated when 40% of the ring stages reached the schizont stage (at least three distinct nuclei per parasite) in the drug-free control wells. Thick blood films were then made from each well, dried, stained with 5% Giemsa solution for 30 min, and examined microscopically.” left out, “The half-maximal drug inhibitory response (EC50) was estimated by curve fitting using software from the OriginLab Corporation, Northampton, MA, USA and comparing with parasite growth in the drug-free controls.” left out

With `CCc1c2nc(-c3cc(C(=O)NC(C)C)cnc3OCC(C)C)[nH]c(=O)c2nn1CCOC` [SAL-0010255] the EC50 [1] was 126 nM, the “% inhibition gametocyte viability at 15 μM” value [2] was 40.4 ± 3.1% and the “% inhibition of exflagellation at 2 μM” value [3] was 48.8 ± 25.3%. For the same compound, the “% inhibition of female gamete formation at 2 μM” value [4] was 66.7 ± 1.8%, the EC50 [5] was 157 nM and the EC50 [6] was 89 nM.

Source: paper PMC11623267, “Inhibitors of malaria parasite cyclic nucleotide phosphodiesterases block asexual blood-stage development and mosquito transmission” (Science Advances, 2024)
